Assay results taken from patent US11739070B2, “C5A receptor modulators” (IDORSIA PHARMACEUTICALS LTD, priority 2018, dated 2023).

Target: T1, C5AR1 (Homo sapiens, UniProt P21730)
T1 construct: host or cells: CHO-K1
T1 sequence (P21730 1-350): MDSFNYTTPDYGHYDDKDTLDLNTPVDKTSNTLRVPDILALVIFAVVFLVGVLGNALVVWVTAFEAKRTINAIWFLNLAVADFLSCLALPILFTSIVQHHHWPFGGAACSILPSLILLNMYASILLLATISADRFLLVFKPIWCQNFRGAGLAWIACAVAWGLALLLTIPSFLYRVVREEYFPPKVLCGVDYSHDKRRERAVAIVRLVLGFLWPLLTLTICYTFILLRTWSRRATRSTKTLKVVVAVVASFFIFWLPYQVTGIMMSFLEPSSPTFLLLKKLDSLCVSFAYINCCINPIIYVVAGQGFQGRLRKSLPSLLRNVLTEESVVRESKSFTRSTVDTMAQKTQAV
Experiment: hC5a DISCO IC50 assay (PathHunter beta-arrestin, antagonist mode)
Format: cell-based
Details: CHO-K1 C5AR1 beta-arrestin cell line; antagonist vs 1-10 nM C5a agonist; geometric mean values; read-out: C5aR IC50
Summary of the method: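 Antagonist added first, then 1-10 nM C5a agonist; cells incubated 1.5 h at 37 °C. Beta-arrestin signal developed with PathHunter detection reagent, 45 min at RT. IC50 in nmol/l from serial antagonist dilutions, reported as geometric mean of several measurements.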

SMILES | IC50
COc1cccc2c1n(Cc1ccccc1C1CC1)c(=O)n2C1CCN(c2c(C)cccc2F)CC1 [Example 223, 3-(2-Cyclopropyl-benzyl)-1-[1-(2-fluoro-6-methyl-phenyl)-piperidin-4-yl]-4-methoxy-1,3-dihydro-benzoimidazol-2-one] | 130 nM
COc1cccc2c1n(Cc1ccccc1OCC1CC1)c(=O)n2C1CCN(c2c(C)cccc2F)CC1 [Example 224, 3-(2-Cyclopropylmethoxy-benzyl)-1-[1-(2-fluoro-6-methyl-phenyl)-piperidin-4-yl]-4-methoxy-1,3-dihydro-benzoimidazol-2-one] | 18 nM
COc1cccc2c1n(Cc1ccccc1OC1COC1)c(=O)n2C1CCN(c2c(C)cccc2F)CC1 [Example 225, 1-[1-(2-Fluoro-6-methyl-phenyl)-piperidin-4-yl]-4-methoxy-3-[2-(oxetan-3-yloxy)-benzyl]-1,3-dihydro-benzoimidazol-2-one] | 40 nM
COc1cccc2c1n(Cc1ccccc1OC1CCC1)c(=O)n2C1CCN(c2c(C)cccc2F)CC1 [Example 226, 3-(2-Cyclobutoxy-benzyl)-1-[1-(2-fluoro-6-methyl-phenyl)-piperidin-4-yl]-4-methoxy-1,3-dihydro-benzoimidazol-2-one] | 36 nM
COc1cccc2c1n(Cc1ccccc1C(F)(F)F)c(=O)n2C1CCN(c2c(C)cccc2F)CC1(C)C (stereo not shown) [Example 227, 1-[1-(2-Fluoro-6-methyl-phenyl)-3,3-dimethyl-piperidin-4-yl]-4-methoxy-3-(2-trifluoromethyl-benzyl)-1,3-dihydro-benzoimidazol-2-one] | 30 nM
COc1cccc2c1n(Cc1ccccc1C(F)(F)F)c(=O)n2C1CCN(C(=O)OC(C)(C)C)CC1(C)C (stereo not shown) [Example 228, 4-[4-Methoxy-2-oxo-3-(2-trifluoromethyl-benzyl)-2,3-dihydro-benzoimidazol-1-yl]-3,3-dimethyl-piperidine-1-carboxylic acid tert-butyl ester] | 259 nM
COc1cccc2c1n(Cc1ccccc1C(F)(F)F)c(=O)n2C1CCN(c2ccccc2OCc2ccccc2)CC1 [Example 231, 1-[1-(2-Benzyloxy-phenyl)-piperidin-4-yl]-4-methoxy-3-(2-trifluoromethyl-benzyl)-1,3-dihydro-benzoimidazol-2-one] | 66 nM
COc1cccc2c1n(Cc1ccccc1C(F)(F)F)c(=O)n2C1CCN(c2ccccc2OC2CCOCC2)CC1 [Example 239, 4-Methoxy-1-{1-[2-(tetrahydro-pyran-4-yloxy)-phenyl]-piperidin-4-yl}-3-(2-trifluoromethyl-benzyl)-1,3-dihydro-benzoimidazol-2-one] | 82 nM
COc1cccc2c1n(Cc1ccccc1C(F)(F)F)c(=O)n2C1CCN(c2ccccc2OCC2CC2)CC1 [Example 240, 1-[1-(2-Cyclopropylmethoxy-phenyl)-piperidin-4-yl]-4-methoxy-3-(2-trifluoromethyl-benzyl)-1,3-dihydro-benzoimidazol-2-one] | 46 nM
COc1cccc2c1n(Cc1ccccc1C(F)(F)F)c(=O)n2C1CCN(c2ccccc2OC2CCC2)CC1 [Example 241, 1-[1-(2-Cyclobutoxy-phenyl)-piperidin-4-yl]-4-methoxy-3-(2-trifluoromethyl-benzyl)-1,3-dihydro-benzoimidazol-2-one] | 36 nM
COc1cccc2c1n(Cc1ccccc1C(F)(F)F)c(=O)n2C1CCN(c2ccccc2OC2COC2)CC1 [Example 242, 4-Methoxy-1-{1-[2-(oxetan-3-yloxy)-phenyl]-piperidin-4-yl}-3-(2-trifluoromethyl-benzyl)-1,3-dihydro-benzoimidazol-2-one] | 74 nM
CCCCOc1ccccc1N1CCC(n2c(=O)n(Cc3ccccc3C(F)(F)F)c3c(OC)cccc32)CC1 [Example 243, 1-[1-(2-Butoxy-phenyl)-piperidin-4-yl]-4-methoxy-3-(2-trifluoromethyl-benzyl)-1,3-dihydro-benzoimidazol-2-one] | 61 nM

Second part, the compound after the results:

IC50 | SMILES
268 nM | COc1cncc2c1n(Cc1ccccc1C(F)(F)F)c(=O)n2C1CCN(c2c(C)cccc2F)CC1 [Example 229, 3-[1-(2-Fluoro-6-methyl-phenyl)-piperidin-4-yl]-7-methoxy-1-(2-trifluoromethyl-benzyl)-1,3-dihydro-imidazo[4,5-c]pyridin-2-one]
129 nM | COc1cccc2c1n(Cc1ccccc1C(F)(F)F)c(=O)n2C1CCN(c2ccccc2O)CC1 [Example 230, 1-[1-(2-Hydroxy-phenyl)-piperidin-4-yl]-4-methoxy-3-(2-trifluoromethyl-benzyl)-1,3-dihydro-benzoimidazol-2-one]
82 nM | COc1cccc2c1n(Cc1ccccc1C(F)(F)F)c(=O)n2C1CCN(c2ncccc2C)CC1 [Example 232, 4-Methoxy-1-(3′-methyl-3,4,5,6-tetrahydro-2H-[1,2′]bipyridinyl-4-yl)-3-(2-trifluoromethyl-benzyl)-1,3-dihydro-benzoimidazol-2-one]
195 nM | COc1cccnc1N1CCC(n2c(=O)n(Cc3ccccc3C(F)(F)F)c3c(OC)cccc32)CC1 [Example 233, 4-Methoxy-1-(3′-methoxy-3,4,5,6-tetrahydro-2H-[1,2′]bipyridinyl-4-yl)-3-(2-trifluoromethyl-benzyl)-1,3-dihydro-benzoimidazol-2-one]
17 nM | COc1nccc(C)c1N1CCC(n2c(=O)n(Cc3ccccc3C(F)(F)F)c3c(OC)cccc32)CC1 [Example 234, 4-Methoxy-1-(2′-methoxy-4′-methyl-3,4,5,6-tetrahydro-2H-[1,3′]bipyridinyl-4-yl)-3-(2-trifluoromethyl-benzyl)-1,3-dihydro-benzoimidazol-2-one]
28 nM | COc1cccc2c1n(Cc1ccccc1C(F)(F)F)c(=O)n2C1CCN(c2c(C)ccnc2F)CC1 [Example 235, 1-(2′-Fluoro-4′-methyl-3,4,5,6-tetrahydro-2H-[1,3′]bipyridinyl-4-yl)-4-methoxy-3-(2-trifluoromethyl-benzyl)-1,3-dihydro-benzoimidazol-2-one]
171 nM | COc1cccc2c1n(Cc1ccccc1C(F)(F)F)c(=O)n2C1CCN(c2ncccc2F)CC1 [Example 236, 1-(3′-Fluoro-3,4,5,6-tetrahydro-2H-[1,2′]bipyridinyl-4-yl)-4-methoxy-3-(2-trifluoromethyl-benzyl)-1,3-dihydro-benzoimidazol-2-one]
90 nM | COc1cccc2c1n(Cc1ccccc1C(F)(F)F)c(=O)n2C1CCN(c2c(C)ccnc2C)CC1 [Example 237, 1-(2′,4′-Dimethyl-3,4,5,6-tetrahydro-2H-[1,3′]bipyridinyl-4-yl)-4-methoxy-3-(2-trifluoromethyl-benzyl)-1,3-dihydro-benzoimidazol-2-one]
133 nM | COc1cccc2c1n(Cc1ccccc1C(F)(F)F)c(=O)n2C1CCN(c2ccccc2OCCO)CC1 [Example 238, 1-{1-[2-(2-Hydroxy-ethoxy)-phenyl]-piperidin-4-yl}-4-methoxy-3-(2-trifluoromethyl-benzyl)-1,3-dihydro-benzoimidazol-2-one]
227 nM | COc1cccc2c1n(Cc1ccccc1C(F)(F)F)c(=O)n2C1CCN(c2c(F)ccnc2C)CC1 [Example 244, 1-(4′-Fluoro-2′-methyl-3,4,5,6-tetrahydro-2H-[1,3′]bipyridinyl-4-yl)-4-methoxy-3-(2-trifluoromethyl-benzyl)-1,3-dihydro-benzoimidazol-2-one]
